# Test results published in PubChem BioAssay AID1845194 (Molecular Pharmacology Branch, DTP, NCI, 2023).
# Tested on: 287954-098-R-J1 tumor spheroid viability
# Experiment: Anticancer human tumor 287954-098-R-J1 patient-derived Ewing sarcoma cell line growth inhibition
# Conditions: spheroids with HUVEC and MSC; for IC50: curve of first compound; for viability, T/C: stronger effect = lower value
# Text: Multicellular complex tumor spheroid response to DNA repair inhibitors in combination with DNA-damaging drugs
# This study explores the anticancer activities of DNA-damaging drugs and inhibitors of DNA damage repair, both as single agents and in combinations. Complex tumor spheroids comprised of malignant cells, endothelial cells and mesenchymal stem cells served as an in vitro model for human solid tumors. This model system incorporates physiologically relevant features and patient-derived or established malignant cell lines with clinically relevant genetic alterations from many tumor types. Twenty-six patient-derived or established malignant cell lines were evaluated representing sarcoma, melanoma, small cell lung cancer (SCLC), non-small cell lung cancer (NSCLC), as well as bladder, ovarian and pancreatic cancers. The concentration ranges selected for each drug and investigational agent were based upon clinically achievable concentrations if the clinical Cmax of the agent was known.
# Compounds. The drugs and compounds olaparib (NSC753686), talazoparib (NSC767125), berzosertib (NSC777718), elimusertib (NSC800525), nedisertib (NSC802822), VX-984 (NSC792969), AZD-1390 (NSC803789), temozolomide (NSC362856), topotecan (NSC609699), trabectedin (NSC813783), staurosporine (NSC755774), and gemcitabine (NSC613327) were obtained from the National Cancer Institute (NCI) Developmental Therapeutics Program Chemical Repository. The FDA-approved anticancer drug set is available from the Developmental Therapeutics Program at https://dtp.cancer.gov/organization/dscb/obtaining/available_plates.htm. […] The stock solutions were prepared in dimethyl sulfoxide (DMSO, Sigma-Aldrich, St. Louis, MO, cat. D2650) at 400-fold the tested concentration and stored at -70 degrees C. Prior to their use, the stock solutions were diluted in fresh medium and the final DMSO concentration in the assay was 0.25% (v/v). All drugs and investigational agents were tested over a range starting from a high concentration at or near the clinical Cmax and decreasing in half-log increments. If the clinical Cmax for an agent had not been determined, the highest concentration tested was 10 microM.
# Cell Lines. The patient-derived cancer cell (PDC) lines: 156681-154-R-J1-PDC, 283228-195-R-J1-PDC, 287954-098-R-J1-PDC, 292921-168-R-J2-PDC, 349418-098-R-PDC, 425362-245-T-J1-PDC, 556581-035-R-J1-PDC, and BL0293-F563-PDC were received from the NCI Patient-Derived Models Repository (PDMR, https://pdmr.cancer.gov). The established cell lines HS-SY-2 (RRID:CVCL_8719), MPNST, and SYO-1 (RRID:CVCL_7146) were obtained from the Sloan Kettering Institute. The alveolar soft parts sarcoma cell line ASPS-1 (RRID:CVCL_S738) was established at the NCI and grown from internal seed stocks. The following established cell lines were purchased from the American Type Culture Collection (ATCC, Manassas, VA): G-401 (ATCC, cat. CRL-1441, RRID:CVCL_0270), SW982 (ATCC, cat. HTB-93, RRID:CVCL_1734), VA-ES-BJ (ATCC, cat. CRL-2138, RRID:CVCL_1785), NCI-H719 (ATCC, cat. CRL-5837, RRID:CVCL_1582), NCI-H196 (ATCC, cat. CRL-5823, RRID:CVCL_1509), NCI-H841 (ATCC, cat. CRL-5845, RRID:CVCL_1595), NCI-H1618 (ATCC, cat. CRL-5879, RRID:CVCL_1480), NCI-H1876 (ATCC, cat. CRL-5902, RRID:CVCL_1503), DMS 114 (ATCC, cat. CRL-2066; RRID:CVCL_1174), NCI-H211 (ATCC, cat. CRL-5824; RRID:CVCL_1529), and SW 1271 (ATCC, cat. CRL-2177, RRID:CVCL_1716). The small cell lung cancer cell line COR-L88 was purchased from Sigma-Aldrich (cat. 92031917-1VL, RRID:CVCL_1141). The non-small cell lung cancer cell lines NCI-H226 (RRID:CVCL_1544) and NCI-H322M (RRID:CVCL_1557) were established at the NCI and grown from internal seed stocks. Pooled donor human umbilical vein endothelial cells (HUVEC, Lonza, cat. CC-2519) and human mesenchymal stem cells (hMSC, Lonza, cat. PT-2501) were purchased from Lonza (Walkersville, MD).
# Cell Culture. All cells were maintained in an incubator at 37 degrees C and 5% CO2 with 95% humidity. […]
# [1] = second compound 0.003 µM, first compound 0.0949 µM
# [2] = second compound 0.003 µM, first compound 0.3 µM
# [3] = second compound 0.003 µM, first compound 0.949 µM
# [4] = second compound 0.003 µM, first compound 3 µM
# 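Also: spheroids exposed to compound for 7 days before viability readout.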
# 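For viability, T/C in this document: luminescent signal taken as surrogate of viable cell content; 100% = DMSO vehicle control viability and lower means growth inhibition.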
structure (smiles),measurement,setting,value
O=C(c1cc(Cc2n[nH]c(=O)c3ccccc23)ccc1F)N1CCN(C(=O)C2CC2)CC1 + CC[C@@]1(O)C(=O)OCc2c1cc1n(c2=O)Cc2cc3c(CN(C)C)c(O)ccc3nc2-1,IC50,second compound 0.003 µM,5240 nM
same,IC50,second compound 0.00949 µM,3840 nM
same,IC50,second compound 0.03 µM,< 94.9 nM
same,IC50,second compound 0.0949 µM,< 94.9 nM
same,IC50,second compound 0.3 µM,< 94.9 nM
same,"viability, T/C",[1],93.7%
same,"viability, T/C",[2],96.7%
same,"viability, T/C",[3],96.2%
same,"viability, T/C",[4],93.9%
same,"viability, T/C","second compound 0.003 µM, first compound 9.49 µM",3.33%
same,"viability, T/C","second compound 0.003 µM, first compound 30 µM",1.93%
same,"viability, T/C","second compound 0.00949 µM, first compound 0.0949 µM",92.9%
same,"viability, T/C","second compound 0.00949 µM, first compound 0.3 µM",95.3%
same,"viability, T/C","second compound 0.00949 µM, first compound 0.949 µM",82.9%
same,"viability, T/C","second compound 0.00949 µM, first compound 3 µM",63.2%
same,"viability, T/C","second compound 0.00949 µM, first compound 9.49 µM",1.84%
same,"viability, T/C","second compound 0.00949 µM, first compound 30 µM",1.78%
same,"viability, T/C","second compound 0.03 µM, first compound 0.0949 µM",2.21%
same,"viability, T/C","second compound 0.03 µM, first compound 0.3 µM",2.14%
same,"viability, T/C","second compound 0.03 µM, first compound 0.949 µM",2.31%
same,"viability, T/C","second compound 0.03 µM, first compound 3 µM",2.28%
same,"viability, T/C","second compound 0.03 µM, first compound 9.49 µM",1.82%
same,"viability, T/C","second compound 0.03 µM, first compound 30 µM",1.46%
same,"viability, T/C","second compound 0.0949 µM, first compound 0.0949 µM",2.17%
same,"viability, T/C","second compound 0.0949 µM, first compound 0.3 µM",1.78%
same,"viability, T/C","second compound 0.0949 µM, first compound 0.949 µM",1.87%
same,"viability, T/C","second compound 0.0949 µM, first compound 3 µM",1.93%
same,"viability, T/C","second compound 0.0949 µM, first compound 9.49 µM",1.76%
same,"viability, T/C","second compound 0.0949 µM, first compound 30 µM",1.56%
same,"viability, T/C","second compound 0.3 µM, first compound 0.0949 µM",1.94%
same,"viability, T/C","second compound 0.3 µM, first compound 0.3 µM",1.89%
same,"viability, T/C","second compound 0.3 µM, first compound 0.949 µM",1.84%
same,"viability, T/C","second compound 0.3 µM, first compound 3 µM",1.71%
same,"viability, T/C","second compound 0.3 µM, first compound 9.49 µM",1.55%
same,"viability, T/C","second compound 0.3 µM, first compound 30 µM",1.28%
CNCc1ccc(-c2cc(-c3nc(-c4ccc(S(=O)(=O)C(C)C)cc4)cnc3N)on2)cc1 + COc1cc2c(cc1O)CCNC21CSC2c3c(OC(C)=O)c(C)c4c(c3C(COC1=O)N1C(O)C3Cc5cc(C)c(OC)c(O)c5C(C21)N3C)OCO4,IC50,second compound 30 pM,516 nM
same,IC50,second compound 94.9 pM,207 nM
same,IC50,second compound 0.0003 µM,154 nM
same,IC50,second compound 0.000949 µM,< 9.49 nM
same,IC50,second compound 0.003 µM,< 9.49 nM
same,"viability, T/C","second compound 30 pM, first compound 0.00949 µM",109%
same,"viability, T/C","second compound 30 pM, first compound 0.03 µM",108%
same,"viability, T/C","second compound 30 pM, first compound 0.0949 µM",110%
same,"viability, T/C","second compound 30 pM, first compound 0.3 µM",94.5%
same,"viability, T/C","second compound 30 pM, first compound 0.949 µM",0.18%
same,"viability, T/C","second compound 30 pM, first compound 3 µM",0.12%
same,"viability, T/C","second compound 94.9 pM, first compound 0.00949 µM",111%
same,"viability, T/C","second compound 94.9 pM, first compound 0.03 µM",106%
same,"viability, T/C","second compound 94.9 pM, first compound 0.0949 µM",113%
same,"viability, T/C","second compound 94.9 pM, first compound 0.3 µM",21.7%
same,"viability, T/C","second compound 94.9 pM, first compound 0.949 µM",0.11%
same,"viability, T/C","second compound 94.9 pM, first compound 3 µM",0.14%
same,"viability, T/C","second compound 0.0003 µM, first compound 0.00949 µM",110%
same,"viability, T/C","second compound 0.0003 µM, first compound 0.03 µM",115%
same,"viability, T/C","second compound 0.0003 µM, first compound 0.0949 µM",85.7%
same,"viability, T/C","second compound 0.0003 µM, first compound 0.3 µM",0.62%
same,"viability, T/C","second compound 0.0003 µM, first compound 0.949 µM",0.04%
same,"viability, T/C","second compound 0.0003 µM, first compound 3 µM",0.13%
same,"viability, T/C","second compound 0.000949 µM, first compound 0.00949 µM",0.42%
same,"viability, T/C","second compound 0.000949 µM, first compound 0.03 µM",0.41%
same,"viability, T/C","second compound 0.000949 µM, first compound 0.0949 µM",0.26%
same,"viability, T/C","second compound 0.000949 µM, first compound 0.3 µM",0.07%
same,"viability, T/C","second compound 0.000949 µM, first compound 0.949 µM",0.03%
same,"viability, T/C","second compound 0.000949 µM, first compound 3 µM",0.14%
same,"viability, T/C","second compound 0.003 µM, first compound 0.00949 µM",0.21%
same,"viability, T/C","second compound 0.003 µM, first compound 0.03 µM",0.22%
same,"viability, T/C",[1],0.18%
same,"viability, T/C",[2],0.17%
same,"viability, T/C",[3],0.16%
same,"viability, T/C",[4],0.24%
